Laboratory results: publication PMC10269622, “Blapstin, a Diapause-Specific Peptide-Like Peptide from the Chinese Medicinal Beetle Blaps rhynchopetera, Has Antifungal Function” (Microbiology Spectrum, 2023)
Bridge positions count the residues as written; N and C are the ends. Ends that are not written are not given here.

How the values were obtained:
[1] = Stability in human plasma (residual antifungal activity, inhibition zone); format: in vitro ADME; settings: 225 μM in 100% human plasma
Experimental: The stability of blapstin in human plasma was assessed using a previously described method ([67]). Blapstin (225 μM) was mixed with 100% human plasma and incubated at 37°C for 0, 2, 4, 6, 8, 10, 15, and 24 h, respectively. Then, the residual antifungal activity against C. albicans ATCC 10231 for each incubation period was evaluated using an inhibition zone assay. Nutrient YM solid medium was coated with C. albicans ATCC 10231, and then 10-μL aliquots of the plasma-peptide mixture were added to sterile, 5-mm-diameter filter paper disks placed on the medium. After 24 h of incubation, the diameter of the inhibition zone against C. albicans ATCC 10231 was measured in triplicate.

[2] = test system: C. albicans ATCC 10231 biofilm; experiment: Inhibition of biofilm formation (crystal violet); format: cell-based, Candida albicans; settings: 0.5×, 1×, 2×, 4× and 8× MIC, 24 h, 37°C, absorbance at 600 nm
Experimental: Biofilms are microbial aggregates produced by the extracellular matrix that are attached to abiotic and biotic surfaces ([57]). A biofilm inhibition assay was performed as previously described, with minor modifications, to determine the ability of blapstin to inhibit biofilm formation ([69], [70]). In brief, the concentration of C. albicans ATCC 10231 was adjusted to 1 × 10^6 CFU/mL, and 200 μL per well was added to sterile 96-well plates mixed with different concentrations of blapstin (0.5×, 1×, 2×, 4×, and 8× MIC). After incubation for 24 h at 37°C, these wells were washed three times with PBS to remove unadhered fungal cells, followed by fixation with 99% methanol for 15 min. Next, methanol was removed, and the wells were allowed to dry. Then, 100 μL of 0.1% crystal violet was added to each well for 10 min, and the plate was washed three times. Finally, 100 μL of 95% ethanol was added, and the absorbance at 600 nm was measured to assess biofilm formation. Fluconazole at 10 μM and clotrimazole at 10 μΜ were used as a positive control, and sterile 0.9% NaCl was used as a negative control.

RAW 264.7 cells = experiment: Cytotoxicity, CCK-8 assay; format: cell-based, mouse; settings: from 7.03 μM to 225 μM, 24 h, CCK-8, absorbance at 450 nm; three independent experiments
Experimental: Cytotoxicity was determined using mouse RAW 264.7 cells (10^6 cells/mL). These cells were cultured in sterile 96-well microplates with RPMI 1640 medium (Corning, USA) in a 5% CO2 incubator at 37°C. The medium was supplemented with 10% fetal calf serum (FCS) and penicillin-streptomycin (100 U/mL each). Cytotoxicity was assessed using the cell counting kit-8 (CCK-8) assay (MCE, USA). After 24 h of incubation with serial dilutions of blapstin, 10 μL of CCK-8 solution was added to each well. The plate was further incubated for 1 to 4 h under standard cell growth conditions, and the residual absorbance was read at 450 nm. The experiments were repeated three times according to the manufacturer’s instructions.

C. albicans ATCC 10231 [3] = experiment: Cryo-SEM membrane morphology; format: cell-based, Candida albicans; settings: 1× MIC, 10 μL on filter paper disk, YM solid medium
Experimental: Cryo-SEM was used to examine membrane morphology as previously described with minor modifications ([65]). C. albicans ATCC 10231 was cultured in a nutrient YM solid medium. Sterilized 5-mm-diameter filter paper disks were placed on the surface of the medium, and 10 μL (1× MIC) of blapstin was added to the disks. Sterile 0.9% NaCl was used as the blank control. Fungi treated with blapstin were observed using cryo-SEM with a Quorum pp3010t system (Sigma 300; Carl Zeiss, Germany).

[4] = test system: Staphylococcus aureus ATCC 6538; experiment: MIC, broth double dilution; format: cell-based; settings: 96-well plate, 37°C, 16 h, absorbance at 600 nm, mean of three independent experiments, ND = no bacteriostatic activity
Experimental: (§1) The standard strain of C. albicans (ATCC 10231), three clinically isolated antibiotic-resistant strains (C. albicans 0065, C. albicans 0063, and C. albicans 6), E. coli (ATCC 8739), and S. aureus (ATCC 6538) were obtained from Kunming Medical University. T. rubrum was purchased from BeNa Culture Collection (BNCC, CAS no. 340195). Different strains of C. albicans, E. coli, and S. aureus were cultured with shaking at 37°C in YM medium and Luria-Bertani (LB) medium. T. rubrum was cultured at 28°C in potato dextrose agar (PDA) medium according to the manufacturer’s instructions.
(§2) According to CLSI protocols, the MIC is determined as a point where there is “zero detectable growth,” The MIC of blapstin against different fungal strains was determined by use of the double dilution method, namely, broth dilution determination. In brief, the different strains were grown in their corresponding media at 28°C or 37°C until they reached the exponential growth phase. Colistin E and fluconazole were used as positive controls. Blapstin was diluted to various concentrations in sterile saline: 100 μL of sterile saline was added to the second well of a sterile 96-well plate, and then 100 μL of blapstin was added to the first and second wells. The solution from the second well was double-diluted with sterile saline until the 11th well, from which 100 μL was removed. In the 12th well, no blapstin was added, and sterile saline was used as a negative control. Afterward, 100 μL of the diluted microbial solution was added to each well, followed by incubation at 37°C for 16 h. To assess the antifungal activity of blapstin against the T. rubrum strain, the spore germination rates were first determined microscopically with a hemocytometer. T. rubrum was diluted with normal saline to 1 × 10^5 CFU/mL and then incubated with various concentrations of blapstin at 28°C for 16 h. The absorbance at 600 nm was measured by a microplate reader (Epoch Etock; Biotek, USA) to estimate the inhibition of bacteria and fungi by blapstin.

[5] = test system: Escherichia coli ATCC 8739; experiment: MIC, broth double dilution; format: cell-based; settings: 96-well plate, 37°C, 16 h, absorbance at 600 nm, mean of three independent experiments, ND = no bacteriostatic activity
Experimental: as §1, §2

C. albicans ATCC 10231 [6] = experiment: Fungus-killing kinetics (colony counting); format: cell-based, Candida albicans; settings: 5× MIC, 2 × 10^5 CFU/mL in YM broth, 37°C, three independent experiments
Experimental: The in vitro killing curve for blapstin against C. albicans was determined as described previously with minor modifications ([66]). In brief, C. albicans ATCC 10231 was diluted to 2 × 10^5 CFU/mL with sterile YM liquid broth. Different concentrations of blapstin (1×, 5×, and 10× MIC) were added to the fungal suspension and cultured at 37°C for various periods (0, 1, 10, 30, 60, and 180 min). Colistin E (1×, 5×, and 10× MIC) was used as a positive control, and 0.9% NaCl was used as a negative control. Within the specified time interval after incubation, the fungal suspensions were diluted 1,000-fold with YM medium, and 100 μL of the diluted fungal suspension was inoculated on YM solid medium. After incubation at 37°C for 24 h, colony counting was performed and the results were expressed as CFU per milliliter.

VRVGPCDQVCSRTNPEKDECCRAHGHSGHSSCYGGRMNCYG (disulfide 6-21, 10-32, 20-39 (inferred)) [Blapstin]
Residual antifungal activity after incubation in human plasma ([1]; 37°C, 24 h, inhibition zone against C. albicans ATCC 10231, triplicate): did not completely disappear | Stability in human plasma ([1]; 8 h at 37°C, inhibition zone against C. albicans ATCC 10231): high stability | Biofilm formation by C. albicans [2]: dose-dependently inhibited | Cytotoxicity in RAW 264.7 cells (RAW 264.7 cells): no obvious cytotoxicity | Membrane morphology under cryo-SEM (C. albicans ATCC 10231 [3]): membrane shrinkage and disruption of the plasma membrane | MIC [4]: did not affect | MIC [5]: did not affect | Time to kill C. albicans ATCC 10231 (C. albicans ATCC 10231 [6]): less than 60 min
